Where “and” joins values, the source holds several entries; their conditions need not be identical. Identical values can stand only once. Like-named read-outs stand apart in the source and are kept apart here.
How the values were obtained:
[1] = tested on: opioid withdrawal in methadone-dependent subjects; assay: Double-blind ascending dose study in methadone maintenance subjects: withdrawal scales, VAS, vital signs, pupillometry, tolerability
[2] = po; cited from earlier work
[3] = tested on: hydrocodone effects: GI transit (peripheral) vs. antinociception (central); assay: Peripheral vs. central potency, (antinociception ID50)/(GI transit ID50); type: in vivo, mice; conditions: for fold more potent peripherally than centrally: over all administration routes
[4] = humans; literature; cited from earlier work
[5] = tested on: hydrocodone-induced antinociception; assay: 55° C. warm-water tail-flick assay: inhibition of hydrocodone-induced antinociception; type: in vivo, mice
[6] = Concentrations in plasma and brain tissue after i.p. injection (LC/MS/MS); conditions: for change of levels at 60 min from those measured at 10 min: after i.p. injection; for concentration at 10 min / concentration at 60 min: mouse, 1 mg/kg
[7] = tested on: hydrocodone induced GI inhibition; assay: GI transit assay (charcoal meal): reversal of hydrocodone induced GI inhibition; conditions: for induction of diarrhea: on administration of the antagonist
[8] = Neutral antagonist comparison (Table 3); conditions: for Equivalent dose (as compared to 1.5 mg to 5 mg 6β-naltrexol): 70 kg subject; for potency, times less potent than 6β-naltrexol: stated as 'may be'/'probably'
[9] = Oral bioavailability of the neutral antagonists
[10] = antagonist p.o. co-administered with hydrocodone A90 32 mg/kg p.o.
[11] = antagonist i.v., hydrocodone A90 3.2 mg/kg i.v.
[12] = antagonist p.o., hydrocodone A90 3.2 mg/kg i.v.
[13] = 1 mg/kg i.p., 60 min after injection
[14] = 10 mg/kg i.p., 10 min after injection
[15] = 10 mg/kg i.p., 60 min after injection

## C=CCN1CC[C@]23c4c5ccc(O)c4O[C@H]2C(=O)CC[C@@]3(O)[C@H]1C5 [Naloxone, naloxone, reference compound]
[1]; 0.050 mg, methadone-dependent subjects
  withdrawal symptoms: detectable withdrawal symptoms
[1]; dose 0.05 mg
  Diastolic BP, peak value: 76.5 ± 3.8 mmHg
  Heart Rate, peak value: 63.5 ± 8.0 bpm
  SOWS (total), peak value: 3.0 ± 2.8
  VAS Any Drug Effect, peak value: 15.4 ± 23.7
  VAS Bad Drug Effect, peak value: 13.5 ± 25.0
  VAS Good Drug Effect, peak value: 10.4 ± 18.9
  VAS Opioid Withdrawal, peak value: 5.6 ± 8.2
  VAS Sickness, peak value: 4.6 ± 6.5
[1]; dose 0.05 mg, mean ± standard deviation
  OOWS (total), peak value: 2.5 ± 0.6

## CN1CC[C@]23CCCC[C@H]2[C@H]1Cc1ccc(O)cc13 [Levorphanol]
[2]
  Bioavailability for CNS (central) effects: 70%

## O=C1CC[C@@]2(O)[C@H]3Cc4ccc(O)c5c4[C@@]2(CCN3CC2CC2)[C@H]1O5 [Naltrexone, naltrexone, reference compound]
[3]
  fold more potent peripherally than centrally: nearly equipotent peripherally and centrally
[4]
  fraction converted to 6β-naltrexol: approximately 43%
[5]; antagonist i.v. pretreatment, hydrocodone A90 3.2 mg/kg i.v.
  Antinociception ID50: 0.0411 mg/kg
[5]; [10]
  Antinociception ID50: 0.914 mg/kg
[5]; antagonist p.o. pretreatment, hydrocodone A90 3.2 mg/kg i.v.
  Antinociception ID50: 0.534 mg/kg
[5]; i.v. administration, hydrocodone 3.2 mg/kg i.v.
  time of peak effect of antinociception inhibition: 30 min
[5]; p.o. administration, hydrocodone 3.2 mg/kg i.v.
  time of peak effect of antinociception inhibition: 45 min
[6]
  change of levels at 60 min from those measured at 10 min: ~90%
[6]; i.p. 6β-naltrexol
  detectability after administration of 6β-naltrexol: no naltrexone was detectable
[6]; brain, intraperitoneal
  concentration at 10 min: 69 ± 20 ng/g
  concentration at 60 min: 9 ± 1 ng/g
[6]; in vivo
  concentration at 10 min: 54 ± 16 ng/mL
  concentration at 60 min: 4 ± 1 ng/mL
[7]; [11]
  GI Transit ID50: 0.0456 mg/kg
[7]; [10]
  GI Transit ID50: 1.40 mg/kg
[7]; [12]
  GI Transit ID50: 0.194 mg/kg
[7]
  induction of diarrhea: strong induction of diarrhea was present

## CCOC(=O)C1(c2ccccc2)CCN(C)CC1 [Pethidine]
[2]
  Bioavailability for CNS (central) effects: 50-60%

## 6β-naltrexamide
[3]; animal experiments
  peripheral over central antagonist selectivity compared to 6β-naltrexol: somewhat higher
[3]; antagonist p.o./hydrocodone i.v.
  Fold-Shift (antinociception ID50)/(GI transit ID50): 14 and 14.3
[3]; mice, oral administration, earlier experiments
  selectivity in blocking peripheral over central opioid effects: approximately twenty-fold
[3]
  fold more potent peripherally than centrally: 14-25 fold
[5]; mouse, in vivo
  potency in blocking hydrocodone-induced antinociception, lower than that of 6β-naltrexol: approximately 10 fold
  time of peak effect of antinociception inhibition: 120 min and 120 to 180 min
[6]; 1 mg/kg i.p., 10 min after injection
  Brain concentration: 6 ± 1 ng/g
[6]; 1 mg/kg i.p., 10 min after injection, mean±SD, n=3
  Plasma concentration: 115 ± 2 ng/mL
[6]; [13]
  Brain concentration: 4 ± 1 ng/g
  Plasma concentration: 18 ± 1 ng/mL
[6]; [14]
  Brain concentration: 27 ± 6 ng/g
  Plasma concentration: 933 ± 221 ng/mL
[6]; [15]
  Brain concentration: 24 ± 1 ng/g
  Plasma concentration: 166 ± 77 ng/mL
[6]
  change of levels at 60 min from those measured at 10 min: had not changed
[6]; mice, preliminary experiments
  blood half-life compared with 6β-naltrexol: longer blood half-life than 6β-naltrexol
[8]
  Half-life of active metabolites: Estimated >12 hours
  potency, times less potent than 6β-naltrexol: 2-3 fold
[8]; given orally
  Bioavailability for CNS (central) effects: ~25%
  Equivalent dose (as compared to 1.5 mg to 5 mg 6β-naltrexol): 3 to 8 mg
[9]; humans, estimated
  oral bioavailability (into the circulation), estimated: approximately 25%
[9]; species not stated
  oral bioavailability: ~20%
[7]; animal experiments
  potency in blocking peripheral effects, lower than 6β-naltrexol on a mg/kg basis: 2-3 fold
[7]; [11]
  GI Transit ID50: 0.173 mg/kg
[7]; antagonist p.o./hydrocodone p.o., full dose-response curves not available
  GI Transit ID50: 1 to 2 mg/kg
[7]; [12]
  GI Transit ID50: 1.92 mg/kg
[7]; i.v. administration
  GI transit ID50, expected: 0.1 to 0.2 mg/kg
[7]
  induction of diarrhea: absent
[7]; p.o. administration
  GI transit ID50, expected: 1 to 2 mg/kg

## COc1cccc(C2(O)CCCCC2CN(C)C)c1 (stereo not shown) [Tramadol]
[2]
  Bioavailability for CNS (central) effects: 68-72%

## COc1ccc2c3c1O[C@H]1[C@@H](O)C=C[C@H]4[C@@H](C2)N(C)CC[C@@]341 [Codeine]
[2]
  Bioavailability for CNS (central) effects: ≈90%

## N[C@@H]1CC[C@@]2(O)[C@H]3Cc4ccc(O)c5c4[C@@]2(CCN3CC2CC2)[C@H]1O5 [6β-naltrexamine]
[8]; given orally
  Equivalent dose (as compared to 1.5 mg to 5 mg 6β-naltrexol): 7.5 to 20 mg
[8]
  potency, times less potent than 6β-naltrexol: 3-6 fold

## CN1CC[C@]23c4c5ccc(O)c4O[C@H]2C(=O)CC[C@@]3(O)[C@H]1C5 [Oxymorphone]
[2]
  Bioavailability for CNS (central) effects: 10%

## COc1ccc2c3c1O[C@H]1C(=O)CC[C@H]4[C@@H](C2)N(C)CC[C@]314 [Hydrocodone]
[2]
  Bioavailability for CNS (central) effects: ≧80%

From patent publication US8748448B2, “Combination analgesic employing opioid agonist and neutral antagonist” (AIKO Biotechnology, priority 2007, dated 2014)
